Source: patent US5252592A, “Tetrazoleacetic acid derivatives having aldose reductase inhibitory activity” (Wakamoto Pharmaceutical Co., Ltd., priority 1991, dated 1993)

Molecular target: T1, aldose reductase (Rattus norvegicus, UniProt P07943)
T1 construct: their crystalline lenses were immediately removed and stored at -80° C; The lenses were homogenized; from tissue; host or cells: crystalline lens of six-week-old male SD rats (30,000 rpm supernatant, dialysed)
Test: Test for Examining Aldose Reductase Inhibitory Effect
Assay type: biochemical, male SD rats (crystalline lenses)
Details: rat lens aldose reductase; DL-glyceraldehyde 10 mM, NADPH 0.15 mM, pH 5.2, 30° C., 5 minutes; least-square regression of log dose-response curve
Procedure: Six-weeks-old male SD rats were anesthetized with ether and killed. Then their crystalline lenses were immediately removed and stored at -80° C. […] The resulting supernatant was dialyzed overnight against 0.05M sodium chloride solution to obtain an aldose reductase solution. All operations were conducted at 4° C. and the enzyme solution was stored at -80° C.
More specifically, 0.1 ml of DL-glyceraldehyde (final concentration: 10 mM) was added to 0.9 ml of 100 mM sodium potassium phosphate buffer (pH 5.2) which contained lithium sulfate (final concentration: 400 mM), reduced nicotinamide adenine dinucleotide phosphate (final concentration: 0.15 mM), the enzyme solution, and the compound to be evaluated (final concentration: 10^-6 M, 10^-7 M or 10^-8 M), and then the reaction was conducted at 30° C. for 5 minutes. During the reaction, the change in the absorbance at 340 nm with time was monitored.
The maximum reducing rate of the absorbance […] during the reaction was determined. By subtracting, from this value, the maximum reducing rate (U0) at 340 nm of the reaction solution before the addition of the substrate (DL-glyceraldehyde), the reaction rate (V=U-U0) was calculated as a true reaction rate in the presence of the compound to be tested.
The same procedure was repeated except for the absence of the compound to be tested. A true reaction rate (V0) in case the enzyme was not inhibited was calculated (V0 =U'-U0 '). The aldose reductase inhibitory activity of the test compounds was determined according to the following formula:
Rate of Inhibition (%)=(V0 -V)/V0 ×100
The concentration of inhibitor giving 50% inhibitation of enyzme activity […] was estimated from the least-square regression line of the log dose-response curve.

O=C(O)Cn1nnnc1-c1ccc2ccccc2c1 [Example 3 - 1] showed an IC50 of 50 nM.
O=C(O)Cn1nnnc1-c1cccc2ccccc12 [Example 3 - 2, [5-(1-naphthyl)tetrazol-1-yl]acetic acid] gave an IC50 of 25 nM.
With COc1ccc2cc(-c3nnnn3CC(=O)O)ccc2c1 [Example 3 - 3] the IC50 was 19 nM.
COc1ccc2c(-c3nnnn3CC(=O)O)cccc2c1C(F)(F)F [Example 3 - 4, [5-[1-(6-methoxy-5-trifluoromethyl)naphthyl]tetrazol-1-yl]acetic acid] showed an IC50 of 130 nM.
